Assay results from US11147801B2, “Methods of use for trisubstituted benzotriazole derivatives as dihydroorotate oxygenase inhibitors” (Aurigene Discovery Technologies Limited, priority 2017, dated 2021).

Key:
[1] = biological target: DHODH (Homo sapiens (Human), UniProt Q02127); assay: DHODH activity assay (coupled enzyme assay, DCIP reduction); format: biochemical; settings: read-out: DHODH inhibition activity, IC50 group
Procedure: The DHODH activity assay is a coupled enzyme assay in which oxidation of DHO and subsequent reduction of ubiquinone are stoichiometrically equivalent to the reduction of DCIP ([…]). The reduction of DCIP is accompanied by a loss of absorbance at 610 nm.
Buffer Preparation: 50 mM tris HCl, 150 mM KCl, and pH 8.0, 0.8% triton.
L-Dihydroorotic acid stock solution of 20 mM in buffer.
2, 6-Dichloroindophenol Sodium salt hydrate stock solution of 20 mM in buffer.
Decylubiquinone stock solution of 20 mM in buffer.
5 μL of Dimethyl sulfoxide or a compound of formula (I) in DMSO solution was added to the wells of a 96 well plate. Compounds of formula (I) were measured at 10 μM.
Protein along with buffer was added, so that the total volume including the DMSO was 87 μL. Compound and protein were incubated for half an hour at room temperature after mixing. 5 μL of 20 mM solution of L-Dihydroorotic acid, 5 μL of 2 mM solution of Decylubiquinone and 3 μL of 2 mM solution of 2, 6-Dichloroindophenol sodium salt hydrate were added to the above solution (total assay volume 100 μL). The mixture was stirred for 2 min and absorbance was recorded at every 10 min at 610 nanometers.
Percent inhibition is calculated as follows: […]
A 2 mM DMSO stock solution of the selected trisubstituted benzoimidazole and benzotriazole derivatives of formula (I) of the present invention to be examined was prepared. Subsequent ⅓rd dilutions were made.
5 μL of each stock of compound of formula (I) was used for each 100 μL assay. Therefore, 5 μL of the 2 mM stock provided 100 μL of 100 μM solution of compound of formula (I), when made up with buffer, protein and substrate. See also: Ulrich et al. (2001) Eur. J. Biochem.268, 1861-1868.

[2] = system: AML and DLBCL patient-derived xenograft models; assay: AML and DLBCL patient-derived xenograft models (all models); format: in vivo, CB17 SCID mice; settings: all five AML and two DLBCL patient-derived models, 100 mg/kg BID PO
Procedure: A screen was next performed using a small number of mice/group to assess efficacy of Compound 1 in AML and DLBCL patient-derived xenograft models. Tumor-bearing mice (n=3/group) were treated with vehicle or Compound 1 at 100 mg/kg BID PO.

[3] = system: SC-1; assay: Double-hit DLBCL 96-hr growth assay; format: cell-based, human; settings: SC-1, double-hit DLBCL
Procedure: (§1) FIG. 8 is a curve showing the relative growth rate of OCILY18, SC-1 and CARNAVAL double hit diffuse large B cell lymphoma (DLBCL) cell lines treated with various concentrations of Compound 1 for 96 hours.

[4] = system: CARNAVAL; assay: Double-hit DLBCL 96-hr growth assay; format: cell-based, human
Procedure: as §1

[5] = system: OCILY18; assay: Double-hit DLBCL 96-hr growth assay; format: cell-based, human
Procedure: as §1

[6] = system: cell lines of heme lineage; assay: Follow-up screen on expanded panel of cell lines of heme lineage, 4-day growth assay; format: cell-based, human
Procedure: (§2) A follow-up screen was performed on an expanded panel of cell lines of heme lineage in a 4-day growth assay. Growth was assessed by Cell-Titer Glo measurements on day 0 and day 4.
(§3) Compound 1, of which diffuse large B cell lymphoma (DLBCL) lines were particularly sensitive (8/11 or 73%). A subset of the heme lines that were of intermediate sensitivity (defined as >50% and <75% growth rate inhibition) or insensitive (defined as <50% growth rate inhibition) to compound 1 in this follow-up screen were subjected to extended growth assays to evaluate if increased treatment time modulated their sensitivity profile. Specifically, these heme lines were pretreated with Compound 1 for three days at the indicated concentrations and then re-plated for a standard 4-day growth assay in fresh media/drug.

[7] = system: BTS49; assay: Triple negative breast cancer cell line panel, 96 hours; format: cell-based, human; settings: BTS49, 96 hours
Text: (§4) A panel of triple negative cancer cell lines (TNBC) were screened to evaluate whether a subset of TNBC could potentially benefit from treatment with compound 1 as a single agent.

[8] = system: HCC1806; assay: as above; format: cell-based, human; settings: HCC1806, 96 hours
Text: as §4

[9] = system: HCC38; assay: as above; format: cell-based, human; settings: HCC38, 96 hours
Text: as §4

[10] = system: HCC1143; assay: as above; format: cell-based, human; settings: HCC1143, 96 hours
Text: as §4

[11] = system: SKNO-1; assay: Heme line growth assay (Cell-Titer Glo), 4-day and extended 7-day; format: cell-based, human
Procedure: as §2, §3

[12] = system: Kasumi-6; assay: as above; format: cell-based, human
Procedure: as §2, §3

[13] = system: Kasumi-3; assay: as above; format: cell-based, human
Procedure: as §2, §3

[14] = system: GDM-1; assay: as above; format: cell-based, human
Procedure: as §2, §3

DHODH, sequence (Q02127 whole entry): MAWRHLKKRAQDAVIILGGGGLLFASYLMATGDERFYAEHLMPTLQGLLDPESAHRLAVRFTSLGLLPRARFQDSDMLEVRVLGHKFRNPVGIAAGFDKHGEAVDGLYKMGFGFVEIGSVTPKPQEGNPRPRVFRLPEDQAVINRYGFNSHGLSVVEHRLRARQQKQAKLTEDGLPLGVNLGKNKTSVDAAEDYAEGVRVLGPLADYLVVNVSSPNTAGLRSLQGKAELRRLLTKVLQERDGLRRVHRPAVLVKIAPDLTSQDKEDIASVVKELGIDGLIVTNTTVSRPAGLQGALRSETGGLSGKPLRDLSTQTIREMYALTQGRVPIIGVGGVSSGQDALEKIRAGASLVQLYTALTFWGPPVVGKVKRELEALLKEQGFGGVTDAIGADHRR

Cc1ccccc1-c1ccc(-c2cc(C(=O)O)c3c(c2)nnn3C)cc1 [Compound 1, 1-methyl-5-(2′-methyl-[1,1′-biphenyl]-4-yl)-1H-benzo[d][1,2,3]triazole-7-carboxylic Acid]
IC50 [1]: < 100 nM | Anti-tumor activity [2]: anti-tumor activity of Compound 1 was observed | Sensitivity to growth inhibition [3]: highly sensitive | Sensitivity to growth inhibition [4]: highly sensitive | Sensitivity to growth inhibition [5]: highly sensitive | Share of diffuse large B cell lymphoma (DLBCL) lines that were sensitive ([6]; 8/11 lines): 73% | Share of the heme lines screened that exhibited sensitivity ([6]; 20/80 lines): 25% | Sensitivity [7]: insensitive | Sensitivity [8]: insensitive | Sensitivity [9]: insensitive | Sensitivity [10]: insensitive | Sensitivity 7-day ([11]; SKNO-1, 3 days pretreatment then 4-day growth assay): ** (intermediate) | Sensitivity 4-day ([11]; SKNO-1, acute myeloid leukemia, 4-day growth assay): * (insensitive) | Sensitivity 7-day ([12]; Kasumi-6, 3 days pretreatment then 4-day growth assay): * (insensitive) | Sensitivity 4-day ([12]; Kasumi-6, acute myeloid leukemia, 4-day growth assay): * (insensitive) | Sensitivity 7-day ([13]; Kasumi-3, 3 days pretreatment then 4-day growth assay): * (insensitive) | Sensitivity 4-day ([13]; Kasumi-3, acute myeloid leukemia, 4-day growth assay): * (insensitive) | Sensitivity 7-day ([14]; GDM-1, 3 days pretreatment then 4-day growth assay): ** (intermediate) | Sensitivity 4-day ([14]; GDM-1, acute myeloid leukemia, 4-day growth assay): * (insensitive)
